The source made the active and inactive calls. The calls are words filed in the database; no cut-off is given here.
How the values were obtained:
RCC4 [1] = experiment: Anticancer activity against human RCC4 cells after 48 hrs by XTT assay; format: functional, cell-based; conditions: RCC4, 48 h
MDA-MB-231 [2] = experiment: Anticancer activity against human MDA-MB-231 cells after 48 hrs by XTT assay; format: functional, cell-based; conditions: MDA-MB-231, 48 h
RCC4 [3] = experiment: Induction of apoptosis in human RCC4 cells assessed as PARP cleavage at 20 uM after 48 hrs by Western blot method; format: functional, cell-based
[4] = Micelle aggregation by the compound
RCC4 [5] = experiment: Induction of autophagy in human RCC4 cells assessed as increase in LC3 lipidation at 20 uM after 48 hrs by Western blot method; format: functional, cell-based
[6] = Potency index, ratio of AICAR IC50 to compound IC50 for human RCC4 cells; format: functional
RCC4 [7] = experiment: Anticancer activity against human RCC4 cells at 50 uM after 48 hrs by XTT assay; format: functional, cell-based
MDA-MB-231 [8] = experiment: Potency index, ratio of AICAR IC50 to compound IC50 for human MDA-MB-231 cells; format: functional
RCC4 [9] = experiment: Induction of autophagy in human RCC4 cells assessed as increase in LC3 cleavage at 20 uM after 48 hrs by Western blot method; format: functional, cell-based
MDA-MB-231 [10] = experiment: Anticancer activity against human MDA-MB-231 cells at 50 uM after 48 hrs by XTT assay; format: functional, cell-based
[11] = Solubility of the compound; format: physicochemical
RCC4 [12] = experiment: Induction of autophagy in human RCC4 cells assessed as increase in LC3 conversion at 1 mM after 48 hrs by Western blot method; format: functional, cell-based

| IC50 (MDA-MB-231 [2]) [µM] | Compound | IC50 (RCC4 [1]) [µM] | further results |
| --- | --- | --- | --- |
| 225 | COC(=O)C(C)(C)N(Cc1cn([C@@H]2O[C@H](COC(C)=O)[C@@H](OC(C)=O)[C@H](OC(C)=O)[C@H]2OC(C)=O)nn1)S(C)(=O)=O | 240 | – |
| 250 | CS(=O)(=O)N(Cc1cn([C@@H]2O[C@H](CO)[C@@H](O[C@H]3O[C@H](CO)[C@@H](O)[C@H](O)[C@H]3O)[C@H](O)[C@H]2O)nn1)c1ccc(C#N)cc1 | 250 | – |
| 100 | CC(=O)OC[C@H]1O[C@@H](n2cc(CN(c3ccccc3)S(=O)(=O)c3ccccc3)nn2)[C@H](OC(C)=O)[C@@H]1OC(C)=O | 150 | – |
| 240 | COC(=O)C(C)(C)N(Cc1cn([C@@H]2O[C@H](COC(C)=O)[C@@H](OC(C)=O)[C@H]2OC(C)=O)nn1)S(C)(=O)=O | 50 | – |
| > 250 | CS(=O)(=O)N(Cc1cn([C@@H]2O[C@H](CO)[C@@H](O)[C@H]2O)nn1)c1ccc(C#N)cc1 | 250 | – |
| 70 | CC(=O)OC[C@H]1O[C@@H](O[C@H]2[C@H](OC(C)=O)[C@@H](OC(C)=O)[C@@H](n3cc(CN(c4ccc(C#N)cc4)S(C)(=O)=O)nn3)O[C@@H]2COC(C)=O)[C@H](OC(C)=O)[C@@H](OC(C)=O)[C@H]1OC(C)=O | 50 | – |
| 100 | CC(=O)OC[C@H]1O[C@@H](n2cc(CN(c3ccc(C#N)cc3)S(C)(=O)=O)nn2)[C@H](OC(C)=O)[C@@H](OC(C)=O)[C@H]1OC(C)=O | 170 | – |
| > 250 | CCS(=O)(=O)N(Cc1cn([C@@H]2O[C@H](COC(C)=O)[C@@H](OC(C)=O)[C@H](OC(C)=O)[C@H]2OC(C)=O)nn1)c1ccc(Cl)cc1 | > 250 | – |
| 225 | CCCCN(Cc1cn([C@@H]2O[C@H](COC(C)=O)[C@@H](OC(C)=O)[C@H]2OC(C)=O)nn1)S(C)(=O)=O | 250 | Activity [4]: inactive; solubility [11]: Soluble |
| 205 | CC(=O)OC[C@H]1O[C@@H](n2cc(CN(c3ccc(C)cc3)S(=O)(=O)c3ccccc3)nn2)[C@H](OC(C)=O)[C@@H]1OC(C)=O | 230 | – |
| 1000 | NC(=O)c1ncn([C@@H]2O[C@H](CO)[C@@H](O)[C@H]2O)c1N [ACADESINE] | 250 | Activity (RCC4 [12]): Active |
| 225 | CCCCCCN(Cc1cn([C@@H]2O[C@H](COC(C)=O)[C@@H](OC(C)=O)[C@H]2OC(C)=O)nn1)S(C)(=O)=O | 140 | Activity [4]: inactive; solubility [11]: Soluble |
| 230 | CC(=O)OC[C@H]1O[C@@H](n2cc(CN(c3ccc(C#N)cc3)S(C)(=O)=O)nn2)[C@H](OC(C)=O)[C@@H](OC(C)=O)[C@@H]1O[C@H]1O[C@H](COC(C)=O)[C@@H](OC(C)=O)[C@H](OC(C)=O)[C@H]1OC(C)=O | 230 | – |

The next lines start with the compound.

| Compound | IC50 (MDA-MB-231 [2]) [µM] | IC50 (RCC4 [1]) [µM] | further results |
| --- | --- | --- | --- |
| CCN(CC)CCNC(=O)c1c(C)[nH]c(/C=C2\C(=O)Nc3ccc(F)cc32)c1C [SUNITINIB] | 6 | 4 | – |
| CCS(=O)(=O)N(Cc1cn([C@@H]2O[C@H](COC(C)=O)[C@@H](OC(C)=O)[C@H]2OC(C)=O)nn1)c1ccc(Cl)cc1 | 250 | 250 | – |
| CC(=O)OC[C@H]1O[C@@H](n2cc(CN(c3ccc(C#N)cc3)S(C)(=O)=O)nn2)[C@H](OC(C)=O)[C@@H]1OC(C)=O | 100 | 235 | – |
| CC(=O)OC[C@H]1O[C@@H](n2cc(CN(c3ccccc3)S(C)(=O)=O)nn2)[C@H](OC(C)=O)[C@@H]1OC(C)=O | 250 | 180 | – |
| CCS(=O)(=O)N(Cc1cn([C@H]2O[C@H](COC(C)=O)[C@@H](O[C@@H]3O[C@H](COC(C)=O)[C@H](OC(C)=O)[C@H](OC(C)=O)[C@H]3OC(C)=O)[C@H](OC(C)=O)[C@H]2OC(C)=O)nn1)c1ccc(Cl)cc1 | 150 | 160 | – |
| CCCCCCCCCCCCCCCCN(Cc1cn([C@@H]2O[C@H](COC(C)=O)[C@@H](OC(C)=O)[C@H]2OC(C)=O)nn1)S(C)(=O)=O | 15 | 13 | Activity (RCC4 [3]): Active; Activity [4]: inactive; Activity (RCC4 [5]): Active; Ratio IC50 [6]: 19; Activity (RCC4 [7]): Active; Ratio IC50 (MDA-MB-231 [8]): 66; Activity (RCC4 [9]): Active; Activity (MDA-MB-231 [10]): Active; solubility [11]: Soluble |
| CCS(=O)(=O)N(Cc1cn([C@H]2O[C@H](CO)[C@@H](O[C@@H]3O[C@H](CO)[C@H](O)[C@H](O)[C@H]3O)[C@H](O)[C@H]2O)nn1)c1ccc(Cl)cc1 | 215 | 200 | – |
| CCS(=O)(=O)N(Cc1cn([C@@H]2O[C@H](COC(C)=O)[C@@H](OC(C)=O)[C@H](OC(C)=O)[C@H]2OC(C)=O)nn1)c1ccccc1 | 155 | 175 | – |
| COC(=O)CN(Cc1cn([C@@H]2O[C@H](COC(C)=O)[C@@H](OC(C)=O)[C@H]2OC(C)=O)nn1)S(C)(=O)=O | 250 | 125 | – |
| CS(=O)(=O)N(Cc1cn([C@@H]2O[C@H](CO)[C@@H](O)[C@H](O)[C@H]2O)nn1)c1ccc(C#N)cc1 | 185 | 200 | – |
| CC(=O)OC[C@H]1O[C@@H](n2cc(CN(c3ccc(C)cc3)S(=O)(=O)c3ccccc3)nn2)[C@H](OC(C)=O)[C@@H](OC(C)=O)[C@@H]1OC(C)=O | 180 | 130 | – |
| CC(=O)OC[C@H]1O[C@@H](n2cc(CN(c3ccc(Cl)cc3)S(=O)(=O)c3ccccc3)nn2)[C@H](OC(C)=O)[C@@H](OC(C)=O)[C@@H]1OC(C)=O | 135 | 115 | – |
| CS(=O)(=O)N(Cc1cn([C@H]2O[C@H](CO)[C@@H](O[C@@H]3O[C@H](CO)[C@H](O)[C@H](O)[C@H]3O)[C@H](O)[C@H]2O)nn1)c1ccc(C#N)cc1 | 250 | 120 | – |
| CC(=O)OC[C@H]1O[C@@H](n2cc(CN(c3ccc(Cl)cc3)S(=O)(=O)c3ccccc3)nn2)[C@H](OC(C)=O)[C@@H]1OC(C)=O | 250 | 250 | – |
| COc1cccc(N(Cc2cn([C@@H]3O[C@H](COC(C)=O)[C@@H](OC(C)=O)[C@H](OC(C)=O)[C@H]3OC(C)=O)nn2)S(C)(=O)=O)c1 | 220 | 200 | – |
| CCCCCCCCCCCCCCN(Cc1cn([C@@H]2O[C@H](COC(C)=O)[C@@H](OC(C)=O)[C@H]2OC(C)=O)nn1)S(C)(=O)=O | 31 | 29 | Activity [4]: inactive; solubility [11]: Soluble |
| CC(=O)OC[C@H]1O[C@@H](n2cc(CN(c3ccc(C#N)cc3)S(C)(=O)=O)nn2)[C@H](OC(C)=O)[C@@H](OC(C)=O)[C@@H]1OC(C)=O | 215 | 120 | – |
| CC(=O)OC[C@H]1O[C@@H](n2cc(CN(c3ccc(C#N)cc3)S(C)(=O)=O)nn2)[C@@H](OC(C)=O)[C@@H](OC(C)=O)[C@@H]1OC(C)=O | 230 | 240 | – |
| COc1cccc(N(Cc2cn([C@@H]3O[C@H](COC(C)=O)[C@@H](OC(C)=O)[C@H]3OC(C)=O)nn2)S(C)(=O)=O)c1 | 160 | 190 | – |
| COC(=O)CN(Cc1cn([C@@H]2O[C@H](COC(C)=O)[C@@H](OC(C)=O)[C@H](OC(C)=O)[C@H]2OC(C)=O)nn1)S(C)(=O)=O | > 250 | > 250 | – |

From ChEMBL document CHEMBL4049416, “Synthesis and anti-cancer activities of new sulfonamides 4-substituted-triazolyl nucleosides” (Bioorg Med Chem Lett, 2017)
